What is called EC50 is the concentration at which the effect is half-maximal.

“Also recorded” adds a separate entry of the source.

Experiment [1] relates to SARS-CoV-2 spike Vpps of different variants (alpha, beta, gamma, delta, omicron). The format is cell-based.
A further experiment relates to SARS-CoV-2 omicron virus. In words: microbe, parasite or virus in culture. Type of experiment: cell-based.

`O=C1O[C@H]2[C@@H]3OC(=O)c4cc(O)c(O)c(O)c4-c4c(O)c(O)c5oc(=O)c6c(c(O)c(O)c7oc(=O)c4c5c76)-c4c(cc(O)c(O)c4O)C(=O)OC[C@H]3OC(O)[C@@H]2OC(=O)c2cc(O)c(O)c(O)c2-c2c1cc(O)c(O)c2O` (mixture of isomers) [Punicalagin, punicalagin]: in experiment [1], the “suppression of entry of Vpp of beta, delta and omicron variant” value was “less potency and not”; the “suppression of infection by Vpp of wild type, alpha variant, gamma variant” value is listed as “significant suppression; also recorded: potent inhibitor”. Further, the EC50 in the experiment with SARS-CoV-2 omicron virus (Severe acute respiratory syndrome coronavirus 2, Vero C1008, read-out: EC50 against omicron variant virus production) is 2.88 µg/mL.
Take tannic acid [reference compound]: in experiment [1], the “block of alpha, beta, gamma, delta, and omicron variants Vpp infection as well as wild-type Vpps” value is “could block”; the “suppression of infection by Vpp of wild type, alpha variant, gamma variant” value is reported as “significant suppression”. The “EC50 against omicron variant virus production” value in the experiment with SARS-CoV-2 omicron virus worked out at 5.27 µg/mL.

Values taken from PMC10465125 (eLife, 2023).
